# Experimental data taken from ChEMBL document CHEMBL5303304, “EUbOPEN Chemogenomics Library - IncuCyte” (2023).
# Columns and labels:
# Assay type in all cases: toxicity, cell-based
# HEK-293T = assay: Incucyte cell viability with HEK293T; settings: human, 10 µM, compound concentration 10 uM
# Fibroblast = assay: Incucyte cell viability with human fibroblast; settings: 10 µM, compound concentration 10 uM
# U2OS = assay: Incucyte cell viability with U2OS; settings: human, 10 µM, compound concentration 10 uM
# Further: unitless GR value; below 1 slowed growth and below 0 cell loss.
Compound,"Growth Rate (HEK-293T; 0 h, replicate number 1)","Growth Rate (HEK-293T; 6 h, replicate number 1)","Growth Rate (Fibroblast; 0 h, replicate number 1)","Growth Rate (Fibroblast; 0 h, replicate number 2)","Growth Rate (Fibroblast; 12 h, replicate number 2)","Growth Rate (Fibroblast; 24 h, replicate number 2)","Growth Rate (U2OS; 0 h, replicate number 2)","Growth Rate (U2OS; 6 h, replicate number 1)","Growth Rate (U2OS; 6 h, replicate number 2)","Growth Rate (U2OS; 12 h, replicate number 1)","Growth Rate (U2OS; 12 h, replicate number 2)","Growth Rate (U2OS; 18 h, replicate number 1)","Growth Rate (U2OS; 18 h, replicate number 2)","Growth Rate (U2OS; 24 h, replicate number 1)","Growth Rate (U2OS; 24 h, replicate number 2)","Growth Rate (HEK-293T; 6 h, replicate number 2)","Growth Rate (HEK-293T; 12 h, replicate number 2)","Growth Rate (HEK-293T; 18 h, replicate number 1)","Growth Rate (Fibroblast; 18 h, replicate number 1)","Growth Rate (Fibroblast; 24 h, replicate number 1)",further results
O=C1NCCc2c(OCCCCN3CCCCC3)cccc21,0.6,0.81,0.29,-0.96,0.64,0.76,-0.98,0.02,0.34,0.56,0.86,0.79,0.88,0.79,0.83,,,,,,"Growth Rate (HEK-293T; 0 h, replicate number 2): 0.67; Growth Rate (Fibroblast; 6 h, replicate number 1): 0.19; Growth Rate (Fibroblast; 12 h, replicate number 1): -0.5; Growth Rate (Fibroblast; 18 h, replicate number 2): 0.79"
O=c1cc(-c2cc(F)c(Cl)nc2Cl)[nH]c2c(-c3ccccc3)c(C(F)(F)F)nn12,0.89,,-0.22,,,1,,0.78,,,,,-0.41,,,0.52,0.74,0.93,0.57,0.39,"Growth Rate (HEK-293T; 18 h, replicate number 2): 0.98; Growth Rate (HEK-293T; 24 h, replicate number 1): 0.8; Growth Rate (HEK-293T; 24 h, replicate number 2): 0.94; Growth Rate (Fibroblast; 12 h, replicate number 1): -0.36"
CC(C)CNc1nc(N2CCN(CC3CCCOC3)CC2)ncc1C(=O)NCc1ccccc1 (configuration not stated),0.68,0.81,-0.99,,-0.95,-0.64,,0.3,0.72,0.83,0.63,0.99,0.76,,0.79,0.95,,,-0.97,-0.8,"Growth Rate (Fibroblast; 6 h, replicate number 2): -1; Growth Rate (Fibroblast; 18 h, replicate number 2): -0.81"
CCOc1ccccc1C(=O)NCC1(N2CCN(CC)CC2)CCCCC1,0.98,0.23,-0.95,-0.98,0.93,0.83,-0.99,,0.56,,0.88,,0.86,,0.94,-0.02,0.31,0.24,-0.25,0.45,"Growth Rate (HEK-293T; 12 h, replicate number 1): -0.11; Growth Rate (HEK-293T; 18 h, replicate number 2): 0.44; Growth Rate (HEK-293T; 24 h, replicate number 1): 0.44; Growth Rate (HEK-293T; 24 h, replicate number 2): 0.46; Growth Rate (Fibroblast; 6 h, replicate number 2): -0.9; Growth Rate (U2OS; 0 h, replicate number 1): -0.19"
Cn1c(SCc2ccc(C(C)(C)C)cc2)nc(N)cc1=O,0.71,-0.1,0.97,-1,,,-0.65,0.7,,0.86,0.66,0.62,0.71,0.78,0.68,-0.24,0.05,0.15,,,"Growth Rate (HEK-293T; 12 h, replicate number 1): -0.03; Growth Rate (HEK-293T; 18 h, replicate number 2): 0.19; Growth Rate (HEK-293T; 24 h, replicate number 1): 0.2; Growth Rate (HEK-293T; 24 h, replicate number 2): 0.23; Growth Rate (Fibroblast; 6 h, replicate number 1): -0.69"
O=S1(=O)NCN(C2CC2)c2ccc(F)cc21,0.98,,0.5,0.39,,0.91,,0.68,0.82,,,0.99,0.88,0.9,0.93,0.62,,,-0.11,0.6,"Growth Rate (HEK-293T; 0 h, replicate number 2): 0.78; Growth Rate (U2OS; 0 h, replicate number 1): 0.05"
